One assay concerns Dengue-2 virus particles. It counts as binding. The conditions noted are these: Den-2; Averionol to Istrocyanidin bound.
The next assay deals with H5N1 virions. It is filed as binding, Avian influenza A virus (H5N1). The conditions noted are these: Averionol to Istrocyanidin bound.

Regarding `COc1cc(OC)c2c(=O)c(O)c(-c3ccc(OC)c(OC)c3)oc2c1` [Averionol], the “Aver:Istro Ratio” value in the assay with Dengue-2 virus particles is on record as 3.7; in the assay on H5N1 virions it was 14.0.

For the origin of these results see patent publication US20090149530A1 (priority 2007, published 2009).
